In article PMC10237672, “Design and synthesis of novel anti-urease imidazothiazole derivatives with promising antibacterial activity against Helicobacter pylori” (PLOS ONE, 2023):
In brackets after ≈: the same amount, converted by molar mass. Entries after “also recorded” stand apart in the source; their conditions may differ. Like-named read-outs stand apart in the source and are kept apart here.

How the values were obtained:
E. coli [1] = experiment: MIC against E. coli (urease negative), agar dilution method; format: cell-based, Escherichia coli; details: for MIC: Escherichia coli, ATCC25922, read-out: MIC ± SEM against E. coli (Urease-)
Procedure: (§1) The H. pylori reference strain ATCC 43504 (DSM 21031) was purchased from the German collection of microorganisms and cell cultures, GmbH (DSMZ; Germany). H. pylori was grown on Brucella agar plates (Sigma, USA) supplemented with 10% horse serum (Sigma, USA) for 72 h at 37 °C under 98% humidity and microaerophilic conditions (5% O2, 10% CO2, and 85% N2) using microaerophilic CampyGen 2.5 L pack (Oxoid, thermo scientific, UK) and anaerobic jar (Biomerieux, France). H. pylori culture was inspected after 3 to 5 days. The E. coli reference strain ATCC 25922 was purchased from the American Type Culture Collection (ATCC, Manassas, VA, USA). E. coli was grown on nutrient agar plates (Sigma, USA) for 24 h at 37 °C under aerobic conditions. Bacterial load was adjusted using a DensiCHEK PLUS device (Biomerieux, France). A regular gram stain (Biomerieux, France) was performed to confirm the identity and the morphology of H. pylori and E. coli as well as to confirm the absence of any contamination. Furthermore, a regular spotting checkup was also performed behind the micro broth dilution testing followed by a gram stain to confirm the identity of the bacteria and the absence of any potential contamination.
(§2) For MIC, the agar dilution method was performed as per the CLSI guidelines. 5 μL of the H. pylori suspension (2.0 McFarland) was plated on the Mueller–Hinton agar (Sigma, USA) supplemented with 10% horse serum including various concentrations of compounds 1a-1j and 2a-2j (0.8 mM, 0.4 mM, 0.2 mM, 0.1 mM, 0.05 mM, 0.025 mM, 0.0125 mM, and 0.006 mM). […] For the micro broth dilution test, compounds 1a-1j and 2a-2j were prepared by 2-fold serial dilution from a concentration of 0.8 mM to 0.006 mM and added to an equal H. pylori suspension of 1.0 McFarland in Mueller–Hinton broth (Sigma, USA) for 72 h. Final optical density of the bacterial suspension was measured by spectrophotometry using Synergy H1 microplate reader (BioTek, USA) at 600 nm. The half maximal inhibitory concentration (IC50) was calculated using Graph Pad Prism 8.02 for windows (Graph Pad Inc., La Jolla, CA, USA). All the tested derivatives compounds were dissolved in dimethyl sulfoxide (DMSO, Sigma, USA). […] Amoxicillin (Sigma, USA) (10 μg/mL and 0.007 μg/mL) and (12 μg/mL and 3 μg/mL) was used as a control antibiotic to confirm the agar dilution protocol for H. pylori and E. coli, respectively. Acetohydroxamic acid (AHA, Sigma, CAS number: 546-88-3) was used as a positive anti-urease control. All antimicrobial susceptibility experiments were repeated twice.

Jack bean urease = biological target: T1, Jack bean urease (Canavalia ensiformis, UniProt P07374); experiment: biochemical; format: biochemical
T1 construct: purchased Sigma Aldrich
Procedure: Reaction mixture comprising 40 μL of buffer (K2HPO4: 10 mmol/L, urea: 100 mmol/L, […]: 10 mmol/L, EDTA: 1 /L mmol, pH = 8.2) and 5 U/mL enzyme (10 μL) were pre-incubated with 10 μL of synthesized compounds (1 mM) and substrate urea (1 mM) were incubated at room temperature in 96 well plate for half an hour. After the incubation at room temperature, absorbance was taken at specific wavelength (630 nm) employing a microplate reader (Bio-Tek, USA) with R1 and R2 reagents in each well. The reactions were measured in triplicate fashion. To calculate the inhibition percentage following equation was used.
Percentage inhibition = 100 –[tested compound/control compound] × 100.

Caco-2 A-B permeability = format: in vitro ADME; details: human, pH 6.5–7.4, test concentration = MIC against H. pylori (19-50 μM), reference drugs 10 μM
Procedure: (§3) The apparent permeability coefficient (Papp) of the test compound was calculated as follows: Papp(cm/s)=VR*CR,end/Δt*1/A*(CD,mid‐CR,mid) where VR is the volume of the receiver chamber. CR,end is the concentration of the test compound in the receiver chamber at the end time point, Δt is the incubation time and A is the surface area of the cell monolayer. CD,mid is the calculated mid-point concentration of the test compound in the donor side, which is the mean value of the donor concentration at time 0 minute and the donor concentration at the end time point. CR,mid is the mid-point concentration of the test compound in the receiver side, which is one half of the receiver concentration at the end time point. Concentrations of the test compound were expressed as peak areas of the test compound.
(§4) The recovery of the test compound was calculated as follows: Recovery(%)=VD*CD,end+VR*CR,end/VD*CD0*100 where VD and VR are the volumes of the donor and receiver chambers, respectively. CD,end is the concentration of the test compound in the donor sample at the end time point. CR,end is the concentration of the test compound in the receiver sample at the end time point. CD0 is the concentration of the test compound in the donor sample at time zero. Concentrations of the test compound are expressed as peak areas of the test compound.
(§5) Fluorescein was used as the cell monolayer integrity marker. Fluorescein permeability assessment (in the A-B direction at pH 7.4 on both sides) was executed after the permeability assay for the test compound.

E. coli [2] = experiment: IC50 against E. coli (urease negative), micro broth dilution method; format: cell-based, Escherichia coli; details: E. coli ATCC 25922, micro broth dilution
Procedure: as §1, §2

H. pylori [3] = experiment: MIC against H. pylori, agar dilution method; format: cell-based, Helicobacter pylori; details: for MIC: Helicobacter pylori, ATCC43504, read-out: MIC value against H. pylori ± SEM; for antibacterial activity against H. pylori (in words): compared within the series and with acetohydroxamic acid
AGS gastric cells = experiment: Cytotoxicity MTT assay against AGS gastric cells; format: cell-based, Human; details: for IC50: MTT, 48 h treatment, read-out: IC50 value against AGS cells ± SEM; for Selectivity index (SI): toward H. pylori vis-à-vis AGS cells (IC50 values)
Procedure: Human gastric adenocarcinoma AGS cells (ATCC CRL-1739) were purchased from the German Cell Lines Service (CLS, Germany) and cultured in RPMI-1640 medium (Sigma, USA) supplemented with 10% fetal bovine serum (FBS, Sigma, USA) and streptomycin-penicillin (100 μg/mL and 100 IU/mL) (Sigma, USA). Cells were incubated at 37 °C in a humidified atmosphere with 5% CO2 until 80–90% confluency.
The (4, 5-dimethythiazol-2-yl) -2, 5-diphenyltetrazolium bromide (MTT, Sigma, USA) assay was used to assess the cytotoxicity of the five most significant compounds. AGS cells (5×10^3/well) were seeded in 96-well plates for 24 h and treated with various concentrations (0.8 mM, 0.4 mM, 0.2 mM, 0.1 mM, 0.05 mM, 0.025 mM, 0.0125 mM, and 0.006 mM) of the five most significant anti-urease imidazothiazole derivatives compounds (compound 1a, 1d, 1h, 2d, and 2f). After 48 h treatment, 100 μL of MTT solution (50 μg/mL) was added to each well, and the cells were incubated for additional 2 h at 37 °C. The solubilization of MTT crystals was accomplished by adding 100 μL of DMSO followed by 10 min of incubation. The plates were shaken for 5 min to dissolve the MTT formazan crystals. The optical density of each well was determined using a Synergy H1 microplate reader (Biotek, USA) at a wavelength of 570 nm. The IC50 of the tested compounds was calculated using GraphPad Prism 8.0.2 for windows (GraphPad Inc., La Jolla, CA, USA) from two repeated experiments.

H. pylori [4] = experiment: IC50 against H. pylori, micro broth dilution test; format: cell-based, Helicobacter pylori; details: H. pylori ATCC 43504, micro broth dilution, 72 h, OD 600 nm, read-out: IC50 value against H. pylori ± SEM
Caco-2 cells = experiment: Caco-2 A-B permeability; format: in vitro ADME
Procedure: as §3, §4, §5

[5] = E. coli ATCC 25922, agar dilution
[6] = H. pylori ATCC 43504, agar dilution

T1 sequence (P07374 whole entry, looked up): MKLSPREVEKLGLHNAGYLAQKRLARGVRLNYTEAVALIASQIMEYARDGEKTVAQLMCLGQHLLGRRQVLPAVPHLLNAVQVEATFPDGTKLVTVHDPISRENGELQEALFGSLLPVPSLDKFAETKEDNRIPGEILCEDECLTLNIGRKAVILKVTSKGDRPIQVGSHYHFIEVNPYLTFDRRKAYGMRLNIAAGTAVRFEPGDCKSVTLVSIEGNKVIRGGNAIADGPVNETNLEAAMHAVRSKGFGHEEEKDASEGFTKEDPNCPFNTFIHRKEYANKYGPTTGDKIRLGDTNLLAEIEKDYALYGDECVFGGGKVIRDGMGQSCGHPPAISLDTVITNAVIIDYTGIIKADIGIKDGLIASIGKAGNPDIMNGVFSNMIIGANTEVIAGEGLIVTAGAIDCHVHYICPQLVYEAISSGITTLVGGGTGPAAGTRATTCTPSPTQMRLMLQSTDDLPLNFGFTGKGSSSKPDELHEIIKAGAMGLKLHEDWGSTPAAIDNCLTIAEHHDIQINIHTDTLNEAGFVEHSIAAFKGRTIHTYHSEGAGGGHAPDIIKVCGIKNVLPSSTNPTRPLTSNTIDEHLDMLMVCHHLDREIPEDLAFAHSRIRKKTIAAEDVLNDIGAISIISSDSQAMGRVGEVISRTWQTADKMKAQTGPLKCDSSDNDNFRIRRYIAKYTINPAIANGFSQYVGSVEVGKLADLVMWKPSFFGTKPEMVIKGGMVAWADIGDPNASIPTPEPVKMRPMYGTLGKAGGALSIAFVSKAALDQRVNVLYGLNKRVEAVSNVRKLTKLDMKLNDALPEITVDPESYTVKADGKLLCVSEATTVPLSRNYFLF

| SMILES | melting point [°C] | MIC (E. coli [1]; [5]) [µM] | IC50 (Jack bean urease) [µM] | Papp (Caco-2 A-B permeability) [×10⁻⁶ cm/s] | recovery (Caco-2 A-B permeability) [%] | IC50 ± SEM against E. coli (Urease-) (E. coli [2]) | MIC (H. pylori [3]; [6]) [µM] | antibacterial activity against H. pylori (in words) (H. pylori [3]) | IC50 (AGS gastric cells; Homo sapiens, AGS) [µM] | Selectivity index (SI) (AGS gastric cells) | IC50 (H. pylori [4]; Helicobacter pylori, ATCC43504) [µM] | Caco-2 permeability (in words) (Caco-2 cells) | activity against urease-negative E. coli (in words) (E. coli [1]; E. coli, up to 0.8 mM) | MIC ± SEM against E. coli (Urease-) (E. coli [1]; [5]) [mM] | IC50 (E. coli [2]; read-out: IC50 ± SEM against E. coli (Urease-)) [mM] | MIC value against H. pylori ± SEM (H. pylori [3]; [6]) [mM] | IC50 (AGS gastric cells) [µM] | IC50 (H. pylori [4]) [µM] |
| --- | --- | --- | --- | --- | --- | --- | --- | --- | --- | --- | --- | --- | --- | --- | --- | --- | --- | --- |
| NS(=O)(=O)Oc1cccc(-c2nc3sccn3c2-c2ccccc2)c1 [Compound 1h, 3-(5-Phenylimidazo[2,1-b]thiazol-6-yl)phenyl sulfamate] | 173 to 175 | > 800 | 2.96 ± 0.02 | 16.9 ± 0.87 | 32.6 | No effect | 50 (≈ 18.6 µg/mL) | strongest antibacterial activity | 145 ± 45 | 5.18 | 28 ± 1 | – | – | – | – | – | – | – |
| CS(=O)(=O)c1cccc(-c2c(-c3cccc(OS(=O)(=O)c4ccc(F)cc4)c3)nc3sccn23)c1 [Compound 2f, 3-(5-(3-(Methylsulfonyl)phenyl)imidazo[2,1-b]thiazol-6-yl)phenyl 4-fluorobenzenesulfonate] | – | > 800 | 7.19 ± 0.09 | 1.98 ± 0.23 | 71.8 | No effect | 38 ± 13 (≈ 20.1 µg/mL) | strongest antibacterial activity | 45 ± 5 | 1.95 | 23 ± 8 | lowest permeability; also recorded: low permeability | – | – | – | – | – | – |
| CS(=O)(=O)Oc1cccc(-c2nc3sccn3c2-c2ccccc2)c1 [Compound 1a, 3-(5-Phenylimidazo[2,1-b]thiazol-6-yl)phenyl methanesulfonate] | 105 to 108 | > 800 | 4.1 ± 0.03 | 18.6 ± 0.79 | 34.4 | No effect | 19 ± 4 | strongest antibacterial activity | 71 ± 17 | 3.09 | 23 ± 9 | – | – | – | – | – | – | – |
| CS(=O)(=O)c1cccc(-c2c(-c3cccc(OS(=O)(=O)C4CCCCC4)c3)nc3sccn23)c1 [Compound 2d, 3-(5-(3-(Methylsulfonyl)phenyl)imidazo[2,1-b]thiazol-6-yl)phenyl cyclohexane-1-sulfonate] | 142 to 144 | > 800 | 4.46 ± 0.12 | 0.07 ± 0.02 | 73.5 | No effect | 22 ± 4 (≈ 11.4 µg/mL) | strongest antibacterial activity | 30 ± 11 | 2.0 | 15 ± 3 | lowest permeability; also recorded: low permeability | – | – | – | – | – | – |
| O=S(=O)(Oc1cccc(-c2nc3sccn3c2-c2ccccc2)c1)C1CCCCC1 [Compound 1d, 3-(5-Phenylimidazo[2,1-b]thiazol-6-yl)phenyl cyclohexane-1-sulfonate] | 118 to 120 | > 800 | 3.09 ± 0.07 | 0.04 ± 0.01 | 63 | No effect | 31 ± 11 (≈ 13.6 µg/mL) | strongest antibacterial activity | 121 ± 44 | 6.05 | 20 ± 3 | lowest permeability; also recorded: poor Caco-2 A-B permeability; also recorded: low permeability | did not show activity | – | – | – | – | – |
| CC(=O)NO [Acetohydroxamic acid (AHA), Acetohydroxamic acid, reference compound] | – | – | – | – | – | – | – | – | – | – | – | – | – | 100 | 39.9 ± 1.78 | 12.5 ± 0.000 (≈ 938 µg/mL) | 5900 ± 300 | 7380 ± 320 |
